According to patent US12491170B2, “Stable treprostinil prodrugs” (United Therapeutics Corporation, priority 2020, dated 2025):
Read-outs that look alike come from different tables or passages of the source.

Experiments:
[1] = biological target: prostaglandin I2 (PGI2) receptor (IP) (Homo sapiens, UniProt P43119); assay: IP receptor cAMP agonist assay (CHO-K1 cells); type: cell-based; conditions: Table 22; relative to treprostinil EC50 values; * partial agonists or ambiguous dose-response curves
Sequence of prostaglandin I2 (PGI2) receptor (IP) (P43119 whole entry): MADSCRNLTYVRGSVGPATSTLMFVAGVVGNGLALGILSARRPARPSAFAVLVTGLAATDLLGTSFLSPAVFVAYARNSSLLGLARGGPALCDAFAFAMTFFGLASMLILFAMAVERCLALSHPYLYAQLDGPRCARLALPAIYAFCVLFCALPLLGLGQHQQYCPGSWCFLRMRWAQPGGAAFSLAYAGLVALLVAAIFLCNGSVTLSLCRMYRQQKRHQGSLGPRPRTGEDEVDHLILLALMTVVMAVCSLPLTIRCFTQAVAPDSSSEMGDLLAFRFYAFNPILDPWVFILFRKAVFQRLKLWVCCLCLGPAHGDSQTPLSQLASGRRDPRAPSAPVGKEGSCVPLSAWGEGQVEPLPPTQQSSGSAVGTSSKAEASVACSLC
Procedure: (§1) Cyclic AMP assay kit: Multiscreen™ TR-FRET cAMP 1.0 No Wash Assay Kit (Multispan, Inc.)
(§2) Cells were thawed from frozen cells and resuspended in assay buffer at desired concentrations. cAMP or Calcium assays were performed according to the manufacturer's protocol using Multiscreen™ TR-FRET cAMP 1.0 No Wash Assay Kit or Multiscreen™ Calcium 1.0 No Wash Kit.
(§3) Gas Cyclic AMP (cAMP) Assay: In agonist mode testing, cells were seeded in a 384-well plate at an appropriate density and then were treated with compounds and incubated at 37° C. for 20 minutes. The reaction was terminated by […] trFluor™ Eu-labeled cAMP and trFluor™ 650-labeled anti-cAMP antibody in lysis buffer. […] All testing wells contained 0.1% DMSO in the final concentrations.
(§4) Data in graphs are represented in Mean±SD. Dose-dependent responses were fitted with sigmoidal dose-response curves allowing variable slopes using GraphPad Prism version 6 (Graphpad Prism).
(§5) These studies used cell lines overexpressing either human IP, EP2 or DP1, or EP1 receptors, and following incubation with varying concentrations of compounds, cAMP levels were measured using Fluorescence Resonance Energy Transfer (FRET).

[2] = biological target: prostaglandin E2 (PGE2) receptor 2 (EP2) (Homo sapiens, UniProt P43116); assay: EP2 receptor cAMP agonist assay (HEK293T cells); type: cell-based; conditions: Table 22; relative to treprostinil EC50 values; * partial agonists or ambiguous dose-response curves
Sequence of prostaglandin E2 (PGE2) receptor 2 (EP2) (P43116 whole entry): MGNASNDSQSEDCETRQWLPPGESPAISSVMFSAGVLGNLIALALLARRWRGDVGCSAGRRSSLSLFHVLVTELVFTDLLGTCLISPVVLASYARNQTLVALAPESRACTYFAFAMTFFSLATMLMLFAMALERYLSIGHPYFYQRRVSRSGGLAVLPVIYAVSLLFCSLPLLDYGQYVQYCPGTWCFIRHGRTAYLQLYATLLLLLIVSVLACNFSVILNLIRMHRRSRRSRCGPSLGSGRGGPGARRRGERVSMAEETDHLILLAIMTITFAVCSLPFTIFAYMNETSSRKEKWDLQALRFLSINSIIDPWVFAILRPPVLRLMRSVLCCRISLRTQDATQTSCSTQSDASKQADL
Procedure: as §1, §2, §3, §4, §5

[3] = biological target: T1, prostaglandin D2 (PGD2) receptor 1 (DP1) (Homo sapiens, UniProt Q13258); assay: DP1 receptor cAMP agonist assay (HEK293T cells); type: cell-based; conditions: Table 22; relative to treprostinil EC50 values; * partial agonists or ambiguous dose-response curves
T1 sequence (Q13258 1-359): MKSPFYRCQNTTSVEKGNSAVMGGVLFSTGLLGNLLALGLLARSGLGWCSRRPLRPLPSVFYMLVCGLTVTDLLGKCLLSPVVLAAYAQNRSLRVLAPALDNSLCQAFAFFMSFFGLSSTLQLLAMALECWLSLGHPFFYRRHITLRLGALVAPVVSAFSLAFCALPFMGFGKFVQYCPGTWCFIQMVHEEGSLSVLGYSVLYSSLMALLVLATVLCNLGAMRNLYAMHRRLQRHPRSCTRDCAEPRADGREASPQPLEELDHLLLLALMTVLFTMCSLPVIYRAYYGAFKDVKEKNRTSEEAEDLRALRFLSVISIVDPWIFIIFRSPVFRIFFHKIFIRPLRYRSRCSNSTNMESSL
Procedure: as §1, §2, §3, §4, §5

[4] = Hydrolysis of prodrugs to treprostinil at pH 6, 7, 8 and 40 C; type: physicochemical
Description: Tables 24, 25 and 26 present data for hydrolysis of selected treprostinil prodrugs at pH 6, 7 and 8, respectively, and 40 C.

[5] = Stability in liver microsomes, human; conditions: for AUC: human
[6] = Stability in liver microsomes, rat
[7] = Stability in liver microsomes, dog
[8] = Stability in cryopreserved hepatocytes, human; conditions: for AUC: human
[9] = Stability in cryopreserved hepatocytes, rat; conditions: for AUC: rat
[10] = Stability in cryopreserved hepatocytes, dog; conditions: for AUC: dog
[11] = Stability in human subcutaneous skin homogenate; conditions: for AUC: human
[12] = rat
[13] = dog

CCCCCC(CCC1C(O)CC2Cc3c(cccc3OCC(=O)O)CC21)OC(=O)C12CC3CC(CC(C3)C1)C2 (stereo not drawn) [Prodrug LXIX]
IP Relative to Tre [1]: 1470x*
EP2 Relative to Tre [2]: 236x*
DP1 Relative to Tre [3]: 1897x
Hydrolysis to treprostinil, % Area, t = 1 week ([4]; pH 6, 40 C.): 0.00 % Area
Hydrolysis to treprostinil, % Area, t = 2 weeks ([4]; pH 6, 40 C.): 0.00 % Area
Hydrolysis to treprostinil, % Area, t = 3 weeks ([4]; pH 6, 40 C.): 0.00 % Area
Hydrolysis to treprostinil, % Area, t = 1 week ([4]; pH 7, 40 C.): 0.00 % Area
Hydrolysis to treprostinil, % Area, t = 2 weeks ([4]; pH 7, 40 C.): 0.00 % Area
Hydrolysis to treprostinil, % Area, t = 3 weeks ([4]; pH 7, 40 C.): 0.00 % Area
Hydrolysis to treprostinil, % Area, t = 1 week ([4]; pH 8, 40 C.): 0.00 % Area
Hydrolysis to treprostinil, % Area, t = 2 weeks ([4]; pH 8, 40 C.): 0.00 % Area
Hydrolysis to treprostinil, % Area, t = 3 weeks ([4]; pH 8, 40 C.): 0.00 % Area

CCCCCC(CCC1C(O)CC2Cc3c(cccc3OCC(=O)O)CC21)OC(=O)C(C)C (stereo not drawn) [Prodrug LXVII]
IP Relative to Tre [1]: 148x
EP2 Relative to Tre [2]: 34x*
DP1 Relative to Tre [3]: 184x
Hydrolysis to treprostinil, % Area, t = 1 week ([4]; pH 6, 40 C.): 0.00 % Area
Hydrolysis to treprostinil, % Area, t = 2 weeks ([4]; pH 6, 40 C.): 0.00 % Area
Hydrolysis to treprostinil, % Area, t = 3 weeks ([4]; pH 6, 40 C.): 0.00 % Area
Hydrolysis to treprostinil, % Area, t = 1 week ([4]; pH 7, 40 C.): 0.00 % Area
Hydrolysis to treprostinil, % Area, t = 2 weeks ([4]; pH 7, 40 C.): 0.00 % Area
Hydrolysis to treprostinil, % Area, t = 3 weeks ([4]; pH 7, 40 C.): 0.00 % Area
Hydrolysis to treprostinil, % Area, t = 1 week ([4]; pH 8, 40 C.): 0.00 % Area
Hydrolysis to treprostinil, % Area, t = 2 weeks ([4]; pH 8, 40 C.): 0.23 % Area
Hydrolysis to treprostinil, % Area, t = 3 weeks ([4]; pH 8, 40 C.): 0.27 % Area

CCCCCC(CCC1C(O)CC2Cc3c(cccc3OCC(=O)O)CC21)OC(=O)C1CCCN1 (stereo not drawn) [XXXVI]
Trep Concentration 0 min [5]: 0.443 µM
Trep Concentration 10 min [5]: 0.502 µM
Trep Concentration 20 min [5]: 0.478 µM
Trep Concentration 30 min [5]: 0.379 µM
Trep Concentration 60 min [5]: 0.316 µM
AUC [5]: 24.34 µmol·min/L
Trep Concentration 0 min [6]: 0.154 µM
Trep Concentration 10 min [6]: 0.242 µM
Trep Concentration 20 min [6]: 0.326 µM
Trep Concentration 30 min [6]: 0.342 µM
Trep Concentration 60 min [6]: 0.463 µM
Trep Concentration 0 min [7]: 0.102 µM
Trep Concentration 10 min [7]: 0.199 µM
Trep Concentration 20 min [7]: 0.309 µM
Trep Concentration 30 min [7]: 0.353 µM
Trep Concentration 60 min [7]: 0.483 µM
Trep Concentration (μM) 0 min [8]: 0 µM
Trep Concentration (μM) 15 min [8]: 0.502 µM
Trep Concentration (μM) 30 min [8]: 0.512 µM
Trep Concentration (μM) 60 min [8]: 0.45 µM
Trep Concentration (μM) 120 min [8]: 0.482 µM
AUC [8]: 53.76 µmol·min/L
Trep Concentration (μM) 0 min [9]: 0.00925 µM
Trep Concentration (μM) 15 min [9]: 0.494 µM
Trep Concentration (μM) 30 min [9]: 0.511 µM
Trep Concentration (μM) 60 min [9]: 0.505 µM
Trep Concentration (μM) 120 min [9]: 0.499 µM
AUC [9]: 56.67 µmol·min/L
Trep Concentration (μM) 0 min [10]: 0 µM
Trep Concentration (μM) 15 min [10]: 0.229 µM
Trep Concentration (μM) 30 min [10]: 0.276 µM
Trep Concentration (μM) 60 min [10]: 0.264 µM
Trep Concentration (μM) 120 min [10]: 0.279 µM
AUC [10]: 29.90 µmol·min/L
Trep Concentration 0 min [11]: 0 µM
Trep Concentration 30 min [11]: 0.328 µM
Trep Concentration 60 min [11]: 0.559 µM
Trep Concentration 120 min [11]: 0.852 µM
AUC [11]: 60.56 µmol·min/L
AUC [12]: 20.24 µmol·min/L
AUC [13]: 19.90 µmol·min/L

CCCCCC(CCC1C(O)CC2Cc3c(cccc3OCC(=O)O)CC21)OC(=O)C(N)CCCCN (stereo not drawn) [XXXV]
Trep Concentration 0 min [5]: 0.0227 µM
Trep Concentration 10 min [5]: 0.0216 µM
Trep Concentration 20 min [5]: 0.0492 µM
Trep Concentration 30 min [5]: 0.0352 µM
Trep Concentration 60 min [5]: 0.0539 µM
AUC [5]: 2.33 µmol·min/L
Trep Concentration 0 min [6]: 0.0254 µM
Trep Concentration 10 min [6]: 0.0305 µM
Trep Concentration 20 min [6]: 0.0389 µM
Trep Concentration 30 min [6]: 0.0458 µM
Trep Concentration 60 min [6]: 0.079 µM
Trep Concentration 0 min [7]: 0.0159 µM
Trep Concentration 10 min [7]: 0.0246 µM
Trep Concentration 20 min [7]: 0.0405 µM
Trep Concentration 30 min [7]: 0.0449 µM
Trep Concentration 60 min [7]: 0.0788 µM
Trep Concentration (μM) 0 min [8]: 0 µM
Trep Concentration (μM) 15 min [8]: 0.0481 µM
Trep Concentration (μM) 30 min [8]: 0.0749 µM
Trep Concentration (μM) 60 min [8]: 0.123 µM
Trep Concentration (μM) 120 min [8]: 0.194 µM
AUC [8]: 13.76 µmol·min/L
Trep Concentration (μM) 0 min [9]: 0 µM
Trep Concentration (μM) 15 min [9]: 0.0876 µM
Trep Concentration (μM) 30 min [9]: 0.129 µM
Trep Concentration (μM) 60 min [9]: 0.169 µM
Trep Concentration (μM) 120 min [9]: 0.239 µM
AUC [9]: 18.99 µmol·min/L
Trep Concentration (μM) 0 min [10]: 0 µM
Trep Concentration (μM) 15 min [10]: 0.0601 µM
Trep Concentration (μM) 30 min [10]: 0.0885 µM
Trep Concentration (μM) 60 min [10]: 0.127 µM
Trep Concentration (μM) 120 min [10]: 0.139 µM
AUC [10]: 12.78 µmol·min/L
Trep Concentration 0 min [11]: 0 µM
Trep Concentration 30 min [11]: 0.857 µM
Trep Concentration 60 min [11]: 0.82 µM
Trep Concentration 120 min [11]: 0.929 µM
AUC [11]: 90.48 µmol·min/L
AUC [12]: 2.92 µmol·min/L
AUC [13]: 2.81 µmol·min/L

CCCCCC(CCC1C(O)CC2Cc3c(cccc3OCC(=O)O)CC21)OC(=O)CCC(=O)O (stereo not drawn) [XX]
Trep Concentration 0 min [5]: 0.048 µM
Trep Concentration 10 min [5]: 0.087 µM
Trep Concentration 20 min [5]: 0.092 µM
Trep Concentration 30 min [5]: 0.1 µM
Trep Concentration 60 min [5]: 0.16 µM
AUC [5]: 6.43 µmol·min/L
Trep Concentration 0 min [6]: 0.12 µM
Trep Concentration 10 min [6]: 0.24 µM
Trep Concentration 20 min [6]: 0.29 µM
Trep Concentration 30 min [6]: 0.38 µM
Trep Concentration 60 min [6]: 0.54 µM
Trep Concentration 0 min [7]: 0.019 µM
Trep Concentration 10 min [7]: 0.044 µM
Trep Concentration 20 min [7]: 0.087 µM
Trep Concentration 30 min [7]: 0.11 µM
Trep Concentration 60 min [7]: 0.2 µM
Trep Concentration (μM) 0 min [8]: 0 µM
Trep Concentration (μM) 15 min [8]: 0.1 µM
Trep Concentration (μM) 30 min [8]: 0.16 µM
Trep Concentration (μM) 60 min [8]: 0.246 µM
Trep Concentration (μM) 120 min [8]: 0.344 µM
AUC [8]: 26.49 µmol·min/L
Trep Concentration (μM) 0 min [9]: 0.0112 µM
Trep Concentration (μM) 15 min [9]: 0.441 µM
Trep Concentration (μM) 30 min [9]: 0.542 µM
Trep Concentration (μM) 60 min [9]: 0.594 µM
Trep Concentration (μM) 120 min [9]: 0.609 µM
AUC [9]: 63.89 µmol·min/L
Trep Concentration (μM) 0 min [10]: 0 µM
Trep Concentration (μM) 15 min [10]: 0.0459 µM
Trep Concentration (μM) 30 min [10]: 0.0824 µM
Trep Concentration (μM) 60 min [10]: 0.136 µM
Trep Concentration (μM) 120 min [10]: 0.198 µM
AUC [10]: 14.60 µmol·min/L
Trep Concentration 0 min [11]: 0 µM
Trep Concentration 30 min [11]: 0 µM
Trep Concentration 60 min [11]: 0.019 µM
Trep Concentration 120 min [11]: 0.03 µM
AUC [11]: 1.76 µmol·min/L
AUC [12]: 21.60 µmol·min/L
AUC [13]: 6.61 µmol·min/L
